pIC50: −log10 of the molar value. Read-outs that look alike come from different tables or passages of the source.
Key:
[1] = molecular target: GSK3α (GST-full length GSK3α) (Homo sapiens (Human), UniProt P49840); test: GSK3α TR-FRET kinase assay; type: biochemical; conditions: IC50
Procedure: (§1) TR-FRET Assay: The assay was performed in a white, 384 well, low volume, flat bottom plate (Grenier). After a 30 minute preincubation in assay buffer with the indicated concentration of compound, the kinase activity was initiated by the addition of the substrates. 1 nM GSK3α (GST-full length GSK3α [SignalChem G08-10G]) or 1 nM GSK3b (GST-full length GSK3b: [SignalChem G08-9G]) were then incubated at ambient temperature for 100 minutes in 10 μL of 50 mM Tris, pH 7.5, 20 mM MgCl2, 0.05 mM DTT, 100 μg/mL BSA and 1% DMSO, with 200 nM biotinylated peptide substrate (biotinylated and S645 phosphorylated glycogen synthase 631-650) and either 4 μM ATP (GSK3α, Table 16) or 2 μM ATP (GSK3b, Table 16) or 1 mM ATP (Table 17). The kinase activity was quenched with 2 μL of 250 mM EDTA. A 10 μL volume of 40 nM Strepavidin-d2, 2 nM Tb^2+-pSer641 antibody in TR-FRET Detection Buffer (Invitrogen) was then added. After 60 min at room temperature the plate was read on Envision plate reader using Ex: 340 nm, Em: 615 nm and […]. The normalized 665/615 Signal ratio versus log compound concentration was analyzed by XLFIT to yield IC50 values.

[2] = molecular target: GSK3b (GST-full length GSK3b) (Homo sapiens (Human), UniProt P49841); test: GSK3b TR-FRET kinase assay; type: biochemical; conditions: IC50
Procedure: as §1

[3] = 1 nM GSK3α, 4 μM ATP, 30 minute preincubation, geometric mean, read-out: GSK3-A TR-FRET BIOCHEMICAL (TR-FRET), GMean
[4] = 1 nM GSK3b, 2 μM ATP, 30 minute preincubation, geometric mean, read-out: GSK3-B TR-FRET BIOCHEMICAL (TR-FRET), GMean
[5] = read-out: GSK3-A (TR-FRET 1 mM ATP), GMean, 1 mM ATP, geometric mean
[6] = read-out: GSK3-B (TR-FRET 1 mM ATP), GMean, 1 mM ATP, geometric mean

Chain of GSK3b (GST-full length GSK3b) (P49841 whole entry): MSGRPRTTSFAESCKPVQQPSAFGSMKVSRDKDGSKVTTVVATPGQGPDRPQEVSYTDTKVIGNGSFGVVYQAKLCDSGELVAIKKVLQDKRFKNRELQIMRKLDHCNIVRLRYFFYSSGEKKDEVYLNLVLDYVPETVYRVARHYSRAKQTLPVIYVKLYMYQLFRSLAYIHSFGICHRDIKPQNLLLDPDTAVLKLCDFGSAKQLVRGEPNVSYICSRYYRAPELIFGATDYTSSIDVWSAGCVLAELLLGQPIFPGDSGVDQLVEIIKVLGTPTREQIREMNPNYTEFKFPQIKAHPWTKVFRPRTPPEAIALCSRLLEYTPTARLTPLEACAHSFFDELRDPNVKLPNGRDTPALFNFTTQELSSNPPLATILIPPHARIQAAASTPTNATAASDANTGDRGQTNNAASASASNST
Chain of GSK3α (GST-full length GSK3α) (P49840 whole entry): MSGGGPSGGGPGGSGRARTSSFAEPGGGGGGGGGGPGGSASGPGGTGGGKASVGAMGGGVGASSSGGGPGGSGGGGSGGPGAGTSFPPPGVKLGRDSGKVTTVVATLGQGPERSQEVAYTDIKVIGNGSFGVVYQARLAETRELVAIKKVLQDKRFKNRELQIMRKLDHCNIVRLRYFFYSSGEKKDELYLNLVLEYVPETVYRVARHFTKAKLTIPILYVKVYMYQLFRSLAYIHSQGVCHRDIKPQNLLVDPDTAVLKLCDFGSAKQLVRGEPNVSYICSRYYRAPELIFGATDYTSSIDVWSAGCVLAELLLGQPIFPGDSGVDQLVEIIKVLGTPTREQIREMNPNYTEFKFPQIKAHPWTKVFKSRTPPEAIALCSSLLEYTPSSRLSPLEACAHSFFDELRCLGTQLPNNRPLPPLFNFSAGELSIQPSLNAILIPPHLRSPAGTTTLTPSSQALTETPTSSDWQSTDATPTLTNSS

| SMILES | pIC50 [1, 3] | pIC50 [2, 4] | also measured |
| --- | --- | --- | --- |
| CC[C@@]1(c2ccccc2)C2=C(C[C@@H](C(F)(F)F)CC2=O)Nc2n[nH]cc21 [Compound 806607] | < 5.30 | < 5.30 | – |
| CC[C@]1(c2ccccc2)C2=C(C[C@@H](C(F)(F)F)CC2=O)Nc2n[nH]cc21 [Compound 806608] | 6.00 to 7.00 | < 5.78 | – |
| CC[C@]1(c2ccccc2)C2=C(C[C@H](C(F)(F)F)CC2=O)Nc2n[nH]cc21 [Compound 806609] | 6.00 to 7.00 | < 5.78 | – |
| CC[C@@]1(c2ccccc2)C2=C(C[C@H](C(F)(F)F)CC2=O)Nc2n[nH]cc21 [Compound 806611] | < 5.30 | < 5.30 | – |
| CC1(C)CC(=O)C2=C(C1)Nc1n[nH]cc1[C@@]21CCc2c(F)cccc21 [Compound 806632] | < 5.78 | < 5.30 | – |
| CC1(C)CC(=O)C2=C(C1)Nc1n[nH]cc1[C@]21CCc2c(F)cccc21 [Compound 806633] | ≥ 7.00 | 6.00 to 7.00 | – |
| CCC1(c2cccc(-c3ccncn3)c2)C2=C(CC(C)(C)CC2=O)Nc2n[nH]cc21 (stereo not drawn) [Compound 806637] | ≥ 7.00 | 6.00 to 7.00 | – |
| CC1(C)CC(=O)C2=C(C1)Nc1n[nH]c(Br)c1[C@@]21CCc2c(F)cccc21 [Compound 806938] | 6.00 to 7.00 | 5.30 to 6.00 | – |
| CC1(C)CC(=O)C2=C(C1)Nc1n[nH]c(Br)c1[C@]21CCc2c(F)cccc21 [Compound 806939] | ≥ 7.00 | ≥ 7.00 | – |
| CC[C@]1(c2cccc(N(C)C(C)=O)c2)C2=C(CC(C)(C)CC2=O)Nc2n[nH]cc21 [Compound 810359] | < 5.30 | < 5.30 | – |
| CCC1(c2cccc(COC)c2)C2=C(CC(C)(C)CC2=O)Nc2n[nH]cc21 (stereo not drawn) [Compound 810360] | ≥ 7.00 | 6.00 to 7.00 | – |
| CCC1(c2cccc(COC)c2)C2=C(CC(C)(C)CC2=O)Nc2n[nH]cc21 (stereo not drawn) [Compound 810362] | < 5.78 | < 5.30 | – |
| CCC1(c2cccc(N3CCOCC3)c2)C2=C(CC(C)(C)CC2=O)Nc2n[nH]cc21 (stereo not drawn) [Compound 810363] | 6.00 to 7.00 | 6.00 to 7.00 | – |
| CC[C@@]1(c2cccc(N3CCOCC3)c2)C2=C(CC(C)(C)CC2=O)Nc2n[nH]cc21 [Compound 810364] | < 5.30 | < 5.30 | – |
| CCC1(c2cccc(Br)c2)C2=C(CC(C)(C)CC2=O)Nc2n[nH]c(C(F)(F)F)c21 (stereo not drawn) [Compound 810365] | < 5.78 | < 5.78 | – |
| CC[C@@]1(c2cccc(N3CCCCC3)c2)C2=C(CC(C)(C)CC2=O)Nc2n[nH]cc21 [Compound 810371] | < 5.30 | < 5.30 | – |
| CC[C@@]1(c2cccc(C(C)C)c2)C2=C(CC(C)(C)CC2=O)Nc2n[nH]cc21 [Compound 810373] | ≥ 7.00 | ≥ 7.00 | pIC50 [1, 5]: 6.00 to 7.00; pIC50 [2, 6]: 5.30 to 6.00 |
| CC[C@]1(c2cccc(C(C)C)c2)C2=C(CC(C)(C)CC2=O)Nc2n[nH]cc21 [Compound 810375] | 5.30 to 6.00 | < 5.30 | – |
| CC1(C)CC(=O)C2=C(C1)Nc1n[nH]cc1C2(C)c1cc(C(F)(F)F)ccc1F (stereo not drawn) [Compound 810376] | ≥ 7.00 | 6.00 to 7.00 | – |
| CC1(C)CC(=O)C2=C(C1)Nc1n[nH]cc1C2(C)c1cc(Cl)ccc1F (stereo not drawn) [Compound 810377] | 6.00 to 7.00 | 5.30 to 6.00 | – |
| CCC1(c2cccc(N3CCN(C)CC3)c2)C2=C(CC(C)(C)CC2=O)Nc2n[nH]cc21 (stereo not drawn) [Compound 810379] | < 5.78 | < 5.30 | – |
| CCC1(c2cccc(C(F)(F)F)c2)C2=C(CC(C)CC2=O)Nc2n[nH]cc21 (stereo not drawn) [Compound 810451] | ≥ 7.00 | ≥ 7.00 | – |
| CCC1(c2cccc(C(F)(F)F)c2)C2=C(CC(C)CC2=O)Nc2n[nH]cc21 (stereo not drawn) [Compound 810452] | 6.00 to 7.00 | 5.30 to 6.00 | – |
| CCC1(c2cccc(C(F)(F)F)c2)C2=C(CC(C)CC2=O)Nc2n[nH]cc21 (stereo not drawn) [Compound 810453] | < 5.30 | < 5.30 | – |
| CC1(C)CC(=O)C2=C(C1)Nc1n[nH]c(Br)c1C21CCNc2ccccc21 (stereo not drawn) [Compound 810460] | 5.30 to 6.00 | < 5.30 | – |

| SMILES | pIC50 [1, 3] | pIC50 [2, 4] | also measured |
| --- | --- | --- | --- |
| CCC1(c2cccc(C(F)(F)F)c2)C2=C(CC(C)(C)CC2=O)Nc2n[nH]c(Br)c21 (stereo not drawn) [Compound 810464] | 5.30 to 6.00 | 5.30 to 6.00 | – |
| CCC1(c2cccc(C(F)(F)F)c2)C2=C(CC(C)(C)CC2=O)Nc2n[nH]c(Br)c21 (stereo not drawn) [Compound 810466] | ≥ 7.00 | ≥ 7.00 | pIC50 [1, 5]: ≥ 7.00; pIC50 [2, 6]: 6.00 to 7.00 |
| CCC1(CC)C2=C(CC(C)(C)CC2=O)Nc2n[nH]cc21 [Compound 810505] | – | – | pIC50 ([1]; 1 nM GSK3α, 4 μM ATP, 30 minute preincubation, Table 16, read-out: GSK3-A TR-FRET BIOCHEMICAL (TR-FRET)): 5.30 to 6.00; pIC50 ([2]; 1 nM GSK3b, 2 μM ATP, 30 minute preincubation, Table 16, read-out: GSK3-B TR-FRET BIOCHEMICAL (TR-FRET)): < 5.30 |
| CCC1(c2cccc(N3CCCC3)c2)C2=C(CC(C)(C)CC2=O)Nc2n[nH]c(C(F)(F)F)c21 (stereo not drawn) [Compound 810506] | ≥ 7.00 | ≥ 7.00 | – |
| CCC1(c2cccc(N3CCOCC3)c2)C2=C(CC(C)(C)CC2=O)Nc2n[nH]c(C(F)(F)F)c21 (stereo not drawn) [Compound 810507] | ≥ 7.00 | ≥ 7.00 | – |
| CCC1(c2cccc(SC)c2)C2=C(CC(C)(C)CC2=O)Nc2n[nH]cc21 (stereo not drawn) [Compound 810508] | ≥ 7.00 | 6.00 to 7.00 | – |
| CC[C@@]1(c2cccc(N3CCCC3)c2)C2=C(CC(C)(C)CC2=O)Nc2n[nH]cc21 [Compound 810509] | < 5.30 | < 5.30 | – |
| CC1(C)CC(=O)C2=C(C1)Nc1n[nH]c(CC(F)(F)F)c1C21CCc2c(F)cccc21 (stereo not drawn) [Compound 810590] | 6.00 to 7.00 | 6.00 to 7.00 | – |
| CC1(C)CC(=O)C2=C(C1)Nc1[nH]nc(C3(C(F)(F)F)CC3)c1C21CCc2c(F)cccc21 (stereo not drawn) [Compound 810591] | 6.00 to 7.00 | 6.00 to 7.00 | – |
| CCC1(c2ccccc2)C2=C(CS(=O)(=O)CC2=O)Nc2n[nH]cc21 (stereo not drawn) [Compound 811512] | – | – | pIC50 ([1]; 1 nM GSK3α, 4 μM ATP, 30 minute preincubation, read-out: GSK3-A TR-FRET BIOCHEMICAL (TR-FRET)): < 5.30; pIC50 ([2]; 1 nM GSK3b, 2 μM ATP, 30 minute preincubation, read-out: GSK3-B TR-FRET BIOCHEMICAL (TR-FRET)): < 5.30 |
| CCC1(c2ccccc2)C2=C(CC3(CCC3)CC2=O)Nc2n[nH]cc21 (stereo not drawn) [Compound 811555] | 6.00 to 7.00 | 6.00 to 7.00 | – |
| Cc1[nH]nc2c1C(C)(c1cccc(C(F)(F)F)c1)C1=C(CC(C)(C)CC1=O)N2 (stereo not drawn) [Compound 811556] | ≥ 7.00 | ≥ 7.00 | – |
| CC[C@]1(c2cccc(C3CC3)c2)C2=C(CC(C)(C)CC2=O)Nc2n[nH]cc21 [Compound 811557] | ≥ 7.00 | ≥ 7.00 | pIC50 [1, 5]: 6.00 to 7.00; pIC50 [2, 6]: 5.30 to 6.00 |
| CCC1(c2cccc(OC)c2)C2=C(CC(C)CC2=O)Nc2n[nH]cc21 (stereo not drawn) [Compound 811559] | ≥ 7.00 | 6.00 to 7.00 | – |
| CC[C@@]1(c2cccc(OC)c2)C2=C(CC(C)(C)CC2=O)Nc2n[nH]cc21 [Compound 811561] | 5.30 to 6.00 | < 5.30 | – |
| CC[C@@]1(c2cccc(OC(C)C)c2)C2=C(CC(C)(C)CC2=O)Nc2n[nH]cc21 [Compound 811563] | 5.30 to 6.00 | < 5.30 | – |
| CCC1(c2cccc(-c3cnn(C)c3)c2)C2=C(CC(C)(C)CC2=O)Nc2n[nH]c(C(F)(F)F)c21 (stereo not drawn) [Compound 811567] | 6.00 to 7.00 | 6.00 to 7.00 | – |
| CCC1(c2cccc(-c3cnn(C)c3)c2)C2=C(CC(C)CC2=O)Nc2n[nH]cc21 (stereo not drawn) [Compound 816752] | ≥ 7.00 | 5.30 to 6.00 | – |
| CC1(C)CC(=O)C2=C(C1)Nc1n[nH]cc1C21CCc2c(Cl)cccc21 (stereo not drawn) [Compound 816795] | ≥ 7.00 | 6.00 to 7.00 | – |
| CCC1(c2ccccc2)C2=C(CC(C)(C(F)(F)F)CC2=O)Nc2n[nH]cc21 (stereo not drawn) [Compound 816796] | 6.00 to 7.00 | 5.30 to 6.00 | – |
| CC1(C)CC(=O)C2=C(C1)Nc1n[nH]cc1[C@@]2(C)c1cc(C(F)(F)F)ccc1F [Compound 816797] | 5.30 to 6.00 | < 5.30 | – |
| CC1(C)CC(=O)C2=C(C1)Nc1n[nH]cc1[C@]2(C)c1cc(C(F)(F)F)ccc1F [Compound 816798] | ≥ 7.00 | 6.00 to 7.00 | – |
| CCC1(c2cccc(N3CCCCC3)c2)C2=C(CC(C)(C)CC2=O)Nc2n[nH]c(C(F)(F)F)c21 (stereo not drawn) [Compound 816799] | 6.00 to 7.00 | 5.30 to 6.00 | – |
| CC[C@]1(c2cccc(N3CCCCC3)c2)C2=C(CC(C)(C)CC2=O)Nc2n[nH]c(C(F)(F)F)c21 [Compound 816800] | ≥ 7.00 | ≥ 7.00 | pIC50 [1, 5]: ≥ 7.00; pIC50 [2, 6]: ≥ 7.00 |
| CC1(C)CC(=O)C2=C(C1)Nc1n[nH]c(CC(F)(F)F)c1C21CCc2c(F)cccc21 (stereo not drawn) [Compound 816837] | 5.30 to 6.00 | 6.00 to 7.00 | – |
